How the values were obtained:
Assay in all cases: Aerobic agar-dilution AST of facultative anaerobes (MIC, checkerboard FIC)
Type in all cases: cell-based
Staphylococcus aureus = test system: Staphylococcus aureus; set-up: MIC (Table 10C, head prints neither MIC nor unit): unit not given beside the values; conditions: for MIC (Table 10C, head prints neither MIC nor unit): strain (MR) 920516, aerobic; for MIC: Staphylococcus aureus
Pseudomonas aeruginosa = conditions: Pseudomonas aeruginosa, Pseudomonas aeruginosa 945748; read-out: MIC
Acinetobacter baumannii = Acinetobacter baumannii 919899, read-out: MIC
Enterococcus faecalis = conditions: Enterococcus faecalis

Row | SMILES | MIC (Table 10C, head prints neither MIC nor unit) (Staphylococcus aureus) | MIC (Staphylococcus aureus) [µg/mL] | MIC (Staphylococcus aureus; ATCC33591) [µg/mL] | further results
1 | CC(C)c1ccc(Cn2ccc3c4c(N)nc(NC5CC5)nc4ccc32)cc1 [Q] | 32 |  |  | 
2 | Cc1cc(NS(=O)(=O)c2ccc(N)cc2)no1 [S, sulfamethoxazole] | >608 |  |  | 
3 | C[C@@H](O)[C@H]1C(=O)N2C(C(=O)O)=C(S[C@@H]3CN[C@H](C(=O)N(C)C)C3)[C@H](C)[C@H]12 [meropenem] |  |  |  | MIC (Pseudomonas aeruginosa): 8 µg/mL; MIC (Acinetobacter baumannii): > 64 µg/mL
4 | CCCCCCCCCCNCCN[C@@]1(C)C[C@H](O[C@H]2[C@H](Oc3c4cc5cc3Oc3ccc(cc3Cl)[C@@H](O)[C@@H](NC(=O)[C@@H](CC(C)C)NC)C(=O)N[C@@H](CC(N)=O)C(=O)N[C@H]5C(=O)N[C@H]3C(=O)N[C@H](C(=O)N[C@H](C(=O)O)c5cc(O)c(CNCP(=O)(O)O)c(O)c5-c5cc3ccc5O)[C@H](O)c3ccc(c(Cl)c3)O4)O[C@H](CO)[C@@H](O)[C@@H]2O)O[C@@H](C)[C@H]1O [telavancin] |  | 0.25 | 0.125 | 
5 | CN[C@H](CC(C)C)C(=O)N[C@H]1C(=O)N[C@@H](CC(N)=O)C(=O)N[C@H]2C(=O)N[C@H]3C(=O)N[C@H](C(=O)N[C@H](C(=O)O)c4cc(O)cc(O)c4-c4cc3ccc4O)[C@H](O)c3ccc(c(Cl)c3)Oc3cc2cc(c3O[C@@H]2O[C@H](CO)[C@@H](O)[C@H](O)[C@H]2O[C@H]2C[C@](C)(N)[C@H](O)[C@H](C)O2)Oc2ccc(cc2Cl)[C@H]1O [vancomycin] |  | 1 | 2 | MIC (Enterococcus faecalis): 1 µg/mL; MIC (Enterococcus faecalis; ATCC51559): > 32 µg/mL
